Measurements published in patent publication US11040986B2, “Crystalline forms of cabotegravir sodium” (Sandoz AG, priority 2017, dated 2021).
Blank lines part the entries; values can stand above or below the compound they belong to.

What was measured:
[1] = competitive slurry experiments with Form A and Form B in 2-butanone; type: physicochemical; conditions: for Sample 1 after 1 day (solid form) / Sample 2 after 2 days (solid form) / Sample 3 after 6 days (solid form) / Result (solid form after slurrying): 2-butanone; for Result (solid form after slurrying): equal amounts of Form A and Form B
Protocol: Competitive slurry experiments in 2-butanone were performed by suspending equal amounts of Form A (approximately 50 mg, prepared according to Reference Example 1 herein) and Form B (approximately 50 mg, prepared according to Example 1 herein) in 2-butanone (4 mL) and vigorously stirring the obtained suspension using a magnetic stirrer at 20° C.; 40° C., 60° C. and 80° C. respectively.

[2] = equilibrium slurry experiments starting from cabotegravir sodium Form A (solvent-mediated phase transformation, PXRD); type: physicochemical; conditions: for Result (PXRD): 7 days
Protocol: […] After 7 days, the solids were collected by filtration dried under vacuum (30 mbar) at room temperature for 20 hours and analyzed by PXRD.
PXRD was performed with a PANalytical X'Pert PRO diffractometer equipped with a theta/theta coupled goniometer in transmission geometry, Cu-Kalpha1,2 radiation (wavelength 0.15419 nm) with a focusing mirror and a solid state PIXcel detector. Diffractograms were recorded at a tube voltage of 45 kV and a tube current of 40 mA, applying a stepsize of 0.013° 2-theta with 40 s per step (255 channels) in the angular range of 2° to 40° 2-theta at ambient conditions. A typical precision of the 2-theta values is in the range of ±0.2° 2-Theta, preferably of ±0.1° 2-Theta. Thus, the diffraction peak of cabotegravir sodium Form B that appears for example at 6.8° 2-Theta can appear in the range of from 6.6 to 7.0° 2-Theta, preferably in the range of from 6.7 to 6.9° 2-Theta on most X-ray diffractometers under standard conditions. […]
[…] The suspension was vigorously stirred at 60° C. using a magnetic stirrer. After 2 days, the solid was collected by filtration dried under vacuum (30 mbar) at room temperature for 20 hours and analyzed by PXRD, which confirmed the receipt of Form C.

Sample 1 after 1 day (solid form) ([1]; 20° C.): Form B | Sample 2 after 2 days (solid form) ([1]; 20° C.): Form B | Sample 3 after 6 days (solid form) ([1]; 20° C.): Form B | Sample 1 after 1 day (solid form) ([1]; 40° C.): Form B | Sample 2 after 2 days (solid form) ([1]; 40° C.): Form B | Sample 3 after 6 days (solid form) ([1]; 40° C.): Form B | Sample 1 after 1 day (solid form) ([1]; 60° C.): Form B | Sample 2 after 2 days (solid form) ([1]; 60° C.): Form B | Sample 3 after 6 days (solid form) ([1]; 60° C.): Form B | Sample 1 after 1 day (solid form) ([1]; 80° C.): Form B | Sample 2 after 2 days (solid form) ([1]; 80° C.): Form B | Sample 3 after 6 days (solid form) ([1]; 80° C.): Form B | Result (solid form after slurrying) ([1]; 20° C.): Form B | Result (solid form after slurrying) ([1]; 40° C.): Form B | Result (solid form after slurrying) ([1]; 60° C.): Form B | Result (solid form after slurrying) ([1]; 80° C.): Form B
Structure (SMILES): C[C@H]1CO[C@@H]2Cn3cc(C(=O)NCc4ccc(F)cc4F)c(=O)c([O-])c3C(=O)N12.[Na+] [Form A + Form B, cabotegravir sodium]

Result (PXRD) ([2]; 1,4-dioxane 5 mL, room temperature): Form B | Result (solid form after slurrying) ([2]; 1,4-dioxane, room temperature): Form B | Result (PXRD) ([2]; 2-butanone 5 mL, room temperature): Form B | Result (solid form after slurrying) ([2]; 2-butanone, 20° C.): Form B | Result (solid form after slurrying) ([2]; 2-butanone, 40° C.): Form B | Result (solid form after slurrying) ([2]; 2-butanone, 60° C.): Form B | Result (solid form after slurrying) ([2]; 2-butanone, 80° C.): Form B | Result (solid form after slurrying) ([2]; 2-butanone, room temperature): Form B | Result (PXRD) ([2]; acetone 5 mL, room temperature): Form B | Result (solid form after slurrying) ([2]; acetone, room temperature): Form B | Result (PXRD) ([2]; methyl acetate 5 mL, room temperature): Form B | Result (solid form after slurrying) ([2]; methyl acetate, room temperature): Form B | solid form by PXRD after slurrying ([2]; methylisobutyl ketone 20 mL, 60° C., 2 days): Form C | Result (solid form after slurrying) ([2]; methylisobutyl ketone, 60° C.): Form C | Result (solid form after slurrying) ([2]; methylisobutyl ketone, room temperature): Form C | Result (PXRD) ([2]; tetrahydrofuran 5 mL, room temperature): Form B | Result (solid form after slurrying) ([2]; tetrahydrofuran, room temperature): Form B
Structure (SMILES): C[C@H]1CO[C@@H]2Cn3cc(C(=O)NCc4ccc(F)cc4F)c(=O)c([O-])c3C(=O)N12.[Na+] [Form A, cabotegravir sodium]

Structure (SMILES): C[C@H]1CO[C@@H]2Cn3cc(C(=O)NCc4ccc(F)cc4F)c(=O)c([O-])c3C(=O)N12.[Na+] [Form B, cabotegravir sodium]
thermodynamic stability relative to Form A ([1]; competitive slurry in 2-butanone, 20 to 80° C.): thermodynamically more stable than Form A | thermodynamic stability relative to Form A ([2]; slurry experiments of Table 1, at least under the tested conditions): thermodynamically more stable than prior art Form A
